For data set [1], the system named is salivary gland cells. The data set can be described thus: Primary culture and subculture of salivary gland cells using a Rock inhibitor (cell morphology). It is filed as cell-based, human. As to conditions: Rock inhibitor-containing medium (10 μM), vs standard medium; FIG. 1. Here is the method: (i) Patient-derived salivary gland cells for use as a source material were taken in a required amount from the labial glands of each patient. (ii) The cells were washed three times with phosphate-buffered physiological saline (PBS) (supplemented with 10 units/ml of penicillin and 100 μg/ml of streptomycin: Sigma-Aldrich). (iii) The cells were cut into small pieces with sterilized iris scissors and a surgical knife (No. 11). (iv) After addition of trypsin (TrypLE Select Enzyme, Gibco, Code No. A12177-01), the cells were shaken at 37° C. for 30 minutes. (v) The cells were mixed with Dulbecco's modified Eagle medium (DMEM: Sigma-Aldrich) (supplemented with 10% fetal bovine serum: Nichirei Bioscience Inc., Japan, 10 units/ml of penicillin and 100 μg/ml of streptomycin), and centrifugation (at 1000 rpm for 5 minutes) was repeated three times. (vi) The cells were mixed with DMEM (supplemented with 10% fetal bovine serum, 10 units/ml of penicillin, 100 μg/ml of streptomycin, 10 μM of the Rock kinase inhibitor and 0.3 μM of L-ascorbic acid 2-phosphate: Sigma-Aldrich) (DMEM+) and then seeded into collagen type 1-coated cell culture dishes (IWAKI). (vii) The cells were washed with PBS once every three days to replace the above medium. (i) The cultured cells were subcultured at 80% confluency. The cells were washed three times with phosphate-buffered physiological saline. […]

Another data set concerns B6C3F1/Crlj mice. The data set is described as follows: Toxicity in mice administered intraperitoneally with a Rock inhibitor. Format: in vivo. As to conditions: 10 mg/kg/day intraperitoneal, once a day for 14 days. The procedure:
4.3 Histopathological Analysis of Organ Toxicity in Mice Administered Intraperitoneally with a Rock Inhibitor Animal used: B6C3F1/Crlj mice (CLEA Japan, Inc., Japan) n=12 for each group (male: 6, female: 6), n=4 for the control group (male: 2, female: 2) Drug: Y-27632 Dose: 10 mg/kg/day (0.25 mg/day for 25 g body weight) Y-27632 was dissolved in PBS and intraperitoneally administered. The control group was administered with an equal volume of PBS. Administration period: administered once a day for successive 14 days. Half of the mice in each group were monitored for follow-up purposes for 14 days after administration. (i) Groups receiving a Rock inhibitor (RI+): n=12 (male: 6, female: 6) A. Group subjected to blood collection and autopsy at the time of the completion of administration (at 14 days after the initiation of administration). n=6 (male: 3, female: 3) B. Group subjected to blood collection and autopsy at the time of the completion of administration (at 28 days after the initiation of administration). n=6 (male: 3, female: 3) The mice were visually observed for their general condition once a day. The mice were measured daily for their body weight and feed/water intake. Hematological tests were performed on each mouse before administration and after administration (on the 14th day). * In each group, 3 male and 3 female mice were subjected to blood collection and autopsy on the 14th day of administration. […] These mice were subjected to blood examination and autopsy on the 28th day after the initiation of administration. Blood counting: red blood cell count, white blood cell count, platelet count, hematocrit value, red blood cell fraction. Biochemical parameters: TP, ALB, CRE, Na, K, GOT, GPT, T-CHO, Glu On the […], 3 male and 3 female mice from each group were subjected to autopsy. The remaining 3 male and 3 female mice were subjected to autopsy on the 28th day after being monitored for follow-up purposes. […]

For data set [2], the system named is salivary gland cells. The data set is described as follows: Karyotype analysis (Q band technique) of primary cultured salivary gland cells. It is filed as cell-based, human. Conditions: primary cultured labial gland cells cultured in inhibitor-containing medium; FIG. 5. Here is the method:
Primary cultured salivary gland cells were cultured in a medium containing a Rock inhibitor and analyzed for the presence or absence of their genetic defect(s) by karyotype analysis. The karyotype analysis test was conducted by Q band technique.

The test system of data set [3] is telomerase reverse transcriptase (TERT). The data set is described as follows: Quantitative RT-PCR of TERT (immortalization) in salivary gland cells. Format: cell-based, human. Conditions: salivary gland cells in Rock inhibitor-containing medium; FIG. 6B. Here is the method:
Primary cultured salivary gland cells were cultured in a medium containing a Rock inhibitor and analyzed for their proliferation by Western blotting of proliferating cell nuclear antigen (PCNA: Santa Cruz) and for their apoptosis by Western blotting of caspase-3 (CST). For analysis of their immortalization, the expression of telomerase reverse transcriptase (TERT) was analyzed by quantitative RT-PCR assay. Quantitative RT-PCR of TERT was conducted in the same manner as shown in (2.1) above. The primers used are as shown below. The universal probe used was #19.

The next data set relates to caspase-3. The data set can be described thus: Western blotting of caspase-3 (apoptosis) in salivary gland cells. It is filed as cell-based, human. Conditions: salivary gland cells in Rock inhibitor-containing medium; relative to α-tubulin; FIG. 6A. Here is the method: Primary cultured salivary gland cells were cultured in a medium containing a Rock inhibitor and analyzed for their proliferation by Western blotting of proliferating cell nuclear antigen (PCNA: Santa Cruz) and for their apoptosis by Western blotting of caspase-3 (CST). For analysis of their immortalization, the expression of telomerase reverse transcriptase (TERT) was analyzed by quantitative RT-PCR assay.
The protein levels of PCNA and caspase-3 were measured by Western blotting. In addition, α-tubulin was used as an endogenous control.
(i) A protein extract was electrophoresed on a 4% to 12% polyacrylamide gel (Invitrogen).
(ii) The proteins were transferred onto a nitrocellulose membrane (Invitrogen).
(iii) The membrane was washed with Tris-buffered saline containing 0.1% Tween-20 (WaKo) (TBST), and then blocked with Blocking One (Nacalai Tesque, Inc., Japan) for 30 minutes. […]
(vi) The membrane was reacted at room temperature for 1 hour with horseradish peroxidase (HRP)-conjugated secondary antibody (Promega) and then treated with Super Signal West Pico Chemiluminescent substrate (Thermo) to develop signals for visualization purposes. The intensity of signals was quantified with a CS analyzer (ATTO) and expressed as a relative value in comparison with the protein level of α-tubulin measured as a control.

As to `CC(N)[C@H]1CC[C@H](C(=O)Nc2ccncc2)CC1` (stereo partly drawn) [Rock inhibitor, (R)-(+)-trans-N-(4-pyridyl)-4-(1-aminoethyl)-cyclohexanecarboxamide], the “cell morphology of salivary gland cells on repeated subculture” value in the data set on salivary gland cells [1] was “maintain their cell morphology arranged in a cobblestone pattern even when repeatedly subcultured”. In addition, the hematological tests entry in the data set with B6C3F1/Crlj mice (FIG. 7) is reported as “No abnormal findings were observed”. In the data set with B6C3F1/Crlj mice (FIG. 8), the “time course of body weight changes” value is on record as “No abnormal findings were observed”. The “histopathological examination of organs” value in the data set with B6C3F1/Crlj mice (HE staining, FIG. 9) is listed as “No abnormal findings were observed”. Moreover, the “chromosomal/genetic defect(s) in karyotype analysis” value with salivary gland cells [2] was “No genetic defect was observed”. For the same compound, the TERT expression result in data set [3] is reported as “no difference was also observed”. Besides, the caspase-3 expression entry with caspase-3 is reported as “no difference was observed”.

Source of the values: patent US20170349879A1, “METHOD FOR CULTURING NORMAL CELLS AND ODONTOMA CELLS CONTAINED IN ORAL TISSUE” (CHIBA UNIVERSITY, priority 2014, published 2017).
